Source: article PMC10138657, “D-Xylose Blocks the Broad Negative Regulation of XylR on Lipid Metabolism and Affects Multiple Physiological Characteristics in Mycobacteria” (International Journal of Molecular Sciences, 2023)

Target: T1, XylR (Mycolicibacterium smegmatis, UniProt A0R508)
T1 construct: gene MSMEG_6022
T1 sequence (A0R508 1-393): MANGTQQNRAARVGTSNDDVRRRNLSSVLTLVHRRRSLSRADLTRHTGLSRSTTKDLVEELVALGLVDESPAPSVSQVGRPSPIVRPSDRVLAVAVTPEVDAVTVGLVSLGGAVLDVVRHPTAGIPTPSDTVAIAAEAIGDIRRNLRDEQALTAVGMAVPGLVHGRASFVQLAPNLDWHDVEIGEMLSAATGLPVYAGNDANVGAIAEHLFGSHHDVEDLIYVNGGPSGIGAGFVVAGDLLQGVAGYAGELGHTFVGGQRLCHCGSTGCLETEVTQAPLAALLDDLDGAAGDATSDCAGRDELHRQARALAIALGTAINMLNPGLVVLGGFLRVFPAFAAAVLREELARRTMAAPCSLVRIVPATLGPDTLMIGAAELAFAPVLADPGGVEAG
Test: isothermal titration calorimetry
Assay type: binding
Settings: 20 mM Tris-base, 100 mM NaCl, 5 mM MgCl2, pH 7.5; 35 μM XylR; independent-site model, n = 1.09 ± 0.04

- Kd: 4.72 ± 0.6 µM
Structure (SMILES): OC1OC[C@@H](O)[C@H](O)[C@H]1O (stereo partly drawn) [D-xylose]
